Assays:
[1] = tested on: WM278, Me300 and SK-MEL37 melanoma cells; assay: apoptosis by Annexin V / Sub-G1 FACS analysis, Example 10, human melanoma cells; type: cell-based; conditions: for apoptosis: agent alone, JNJ 0.4 μM, Nutlin3 10-20 μM, 72 hours, melanoma cell lines
Description: (§1) FIG. 20. Restoring p53 by inhibiting mdm2 and iASPP suppresses melanoma growth in vitro and in vivo. FIG. 20A. H1299 cells were treated with DMSO or 10 μM nocodazole in the presence or absence of 2 or 10 μM of mitosis-related kinase inhibitors as indicated. […] FIG. 20B. Left panel: representative p53 level after Nutlin3 treatment for 24 hours in a variety of cells. Right bar graphs show the sub-G1 proportion of WM278 after treatment as that described in FIG. 19B (in upper panel, 10 μM and 20 μM Nutlin3 were used in parallel for comparison). From left to right of the upper right bar graph of FIG. 20B, the bars correspond to DMSO, Nut and JNJ+Nut, respectively. From left to right of the bottom bar graph of FIG. 20B, the bars correspond to DMSO, JNJ, Nut and JNJ+Nut, respectively. FIG. 20C. Me300, SK-MEL37, and B16 cells were treated as above (For B16 panel, 10 μM Nutlin3 was used) and sub-G1 proportion was analyzed. In (B) and (C), the bar graphs (mean±SD) were derived from three independent experiments. *p<0.05. FIG. 20D. Left panel: untreated B16 cells were subcutaneously injected into mice at day 1. […] Compound administration and tumor size measurement were repeated every two days from day 7 onwards. Bar graphs are shown as mean±SD (*p<0.05, n=6). FIG. 20E. Lower panels show representative images of isolated tumors. Right panel: representative H & E staining in B16 tumor section. Bar=20 μm.
FIG. 21. Restoring apoptotic function of p53 cooperates with BRAFV600E inhibition to suppress human melanoma cell growth.

[2] = tested on: WM278, Me300 and SK-MEL37 melanoma cells; assay: colony formation assay, Example 10, human melanoma cells; type: cell-based; conditions: agent alone; melanoma cell lines
Excerpt: FIG. 21. Restoring apoptotic function of p53 cooperates with BRAFV600E inhibition to suppress human melanoma cell growth. […] The bar graphs (mean±SD) were derived from three independent experiments. *p<0.05. Lower images show representative Annexin V/7-AAD profile and dishes, respectively. FIG. 21C. Diagrams showing how cyclinB1/cdk1 phosphorylation controls iASPP localization in interphase (interphase) or mitosis or tumor cells (mitosis/melanomas). Blue and red stars (*) indicate the C- and N-terminal contact residues and the phosphorylation status is labeled as (P). The bottom diagram summarizes the pathways that PLX4032, Nutlin3 and JNJ used to suppress melanoma cell growth.

[3] = tested on: B16 melanoma cells; assay: xenograft assay, B16 cells treated in vitro and injected into C57BL/6 mice; type: in vivo; conditions: 13 days after injection of in vitro treated B16 cells
Description: At day 1, C57BL/6 mice (7-9 weeks old) were injected s.c. at flanks with 1×10^6 B16 melanoma cells in 100 μl PBS (component treated cells for FIG. 19C, untreated cells for FIGS. 19D and 20D). Component (Nutlin3 (40 mg/kg) or JNJ-7706621 (also referred to herein as “JNJ”, 30 mg/kg)) was dissolved in DMSO and i.p. administered every two days since day 3, or day 7 (no component administration for FIG. 19C). Tumor size was measured every two days with vernier caliper. Tumor volumes were calculated using the following formula: (L*W*W)/2, in which L represents the larger diameter of the tumor, and W represents the smaller diameter. On day 13 (tumor area reach ˜1.2 cm diameter in DMSO group), all mice were sacrificed and tumors were isolated and weighed.
Mouse B16 melanoma cells are known to form highly aggressive melanoma in vivo in immune competent C57BL/6 syngeneic mice. Because regulation of p53 by iASPP and mdm2 exists in both human WM278 cells and mouse B16 cells, experiments were carried out to determine if restoring p53 function in B16 cells is able to suppress tumor growth in C57BL/6 mice in vivo. B16 cells, treated with (1) DMSO, (2) Nutlin3, (3) JNJ, or (4) Nutlin3+JNJ, were injected into the flank of 7-9 week-old female C57BL/6 mice.

[4] = tested on: B16 melanoma; assay: xenograft assay, untreated B16 cells, compounds given i.p.; type: in vivo, C57BL/6 mice; parameters: concentration or dose not given beside the values
Description: as §1
At day 1, C57BL/6 mice (7-9 weeks old) were injected s.c. at flanks with 1×10^6 B16 melanoma cells in 100 μl PBS (component treated cells for FIG. 19C, untreated cells for FIGS. 19D and 20D).

[5] = tested on: nuclear iASPP and p53 in B16 tumors; assay: immunofluorescence staining of iASPP and p53 in B16 tumor sections; type: in vivo, C57BL/6 mice; conditions: tumor sections from i.p. treated mice
[6] = i.p. administration from day 3 after B16 inoculation
[7] = i.p. administration from day 7 after B16 inoculation

SMILES	increase in Nutlin3-induced apoptosis ([1]; Me300 and WM278 cells, Annexin V or Sub-G1)	apoptosis [1]	suppression of cell growth [2]	tumor size and weight, of control (DMSO-treated B16 cell group) [3]	suppression of B16 melanoma growth [4, 6]	suppression of B16 melanoma growth [4, 7]	iASPP expression in B16 tumors [5]	p53 expression in B16 tumors [5]
Nc1nc(Nc2ccc(S(N)(=O)=O)cc2)nn1C(=O)c1c(F)cccc1F [JNJ-7706621]	3-4 fold	only a small percentage of cells	limited	around 40%	36%	30%	clearly reduced nuclear iASPP expression	no effect on p53 expression
COc1ccc(C2=N[C@@H](c3ccc(Cl)cc3)[C@@H](c3ccc(Cl)cc3)N2C(=O)N2CCNC(=O)C2)c(OC(C)C)c1 [Nutlin3]		only a small percentage of cells	limited	~60%	22%	5%	minimal impact on iASPP expression	induced nuclear p53 expression

Reference: patent US9880171B2, “iASPP phosphorylation and metastatic potential” (LUDWIG INSTITUTE FOR CANCER RESEARCH LTD., priority 2012, dated 2018)
